We go through 1 compound from patent publication US20140341916A1, “THERAPEUTIC COMBINATIONS AND METHODS OF TREATING MELANOMA” (Genentech, Inc., priority 2011, published 2014).

Test [1] has as its system A2058. The test can be described thus: In vitro killing of A2058 by RG7204 (data not shown). The test is classed as cell-based, human.
The test system of test [2] is Phosphorylated erk. Kind of test: PD study, phosphorylated erk in COLO 829 tumors, Western blot. It is filed as in vivo, mice. Conditions: 30 mpk BRAFi RG7204. The protocol: A2058 or COLO 829 tumors were grown to an average size of approximately 200 mm^3, whereupon animals were randomized into groups of 5-6 each. For the BRAFi PD study, an appropriate vehicle control (Klucel LF) or RG7204 at doses of 10 mpk or 30 mpk were administered twice a day for 3 days (FIG. 27A). For the MEKi PD study, an appropriate vehicle control or MEKi-973 at doses of 5 mpk and 10 mpk were administered orally once a day for 3 days (FIG. 27B). Flash frozen tumors harvested at end of study were homogenized and processed for RNA and/or protein. Taqman assays were set up using reagents from Applied Biosystems (ABI, Foster City, Calif.) and assayed using 7500 Real Time PCR machine and software from ABI. Primer-probe sets were designed with primers flanking a fluorogenic probe dual labeled with Reporter dye FAM and quencher dye TAMRA. […]
Phosphorylated erk and total erk protein levels were evaluated in the tumors by western blotting using the following reagents: for detection of proteins: anti-Phospho-p44/42 MAPK (Erk1/2) (Thr202/Tyr204) antibody (9101, Cell Signaling Technology), anti-p44/42 MAPK (Erk1/2) antibody (9102, Cell Signaling Technology) and mouse monoclonal anti-β-Tubulin antibody (556321, BD Pharmingen) as control (FIG. 26).
Background: Immunoblotting shows a protein as a band on a membrane.

SMILES strings stand for the structures.

As for `CCCS(=O)(=O)Nc1ccc(F)c(C(=O)c2c[nH]c3ncc(-c4ccc(Cl)cc4)cc23)c1F` [RG7204, propane-1-sulfonic acid {3-[5-(4-chlorophenyl)-1H-pyrrolo[2,3-b]pyridine-3-carbonyl]-2,4-difluoro-phenyl}-amide], in test [1], the “in vitro killing efficacy” value is greater than 20 µM. Moreover, the “Perk in tumors vs control” value in test [2] was “appears to inhibit Perk in vivo”.
